From ChEMBL document CHEMBL4414679, “Discovery of 4,6-pyrimidinediamine derivatives as novel dual EGFR/FGFR inhibitors aimed EGFR/FGFR1-positive NSCLC” (Eur J Med Chem, 2020)
pIC50: −log10 of the molar value. Calls of active or inactive are those of the source. The rule behind the calls is not given here.

Assays:
[1] = test system: Mus musculus; assay: Down regulation of FGFR1 phosphorylation in BALB/c nude mouse xenografted with human HCC827GR cells at 15 mg/kg, ip dosed by western blot analysis; assay type: functional, organism-based
[2] = target: Cyclin-dependent kinase 1/cyclin B1 (Homo sapiens) (UniProt P06493+P14635); assay: Inhibition of CDC2/cyclinB1 (unknown origin) at 10 uM using FAM-labelled peptide as substrate pre-incubated for 10 mins followed by substrate addition by mobility shift assay relative to control; assay type: protein-complex assay
Cyclin-dependent kinase 1/cyclin B1 (Homo sapiens), sequence (P06493 whole entry, looked up): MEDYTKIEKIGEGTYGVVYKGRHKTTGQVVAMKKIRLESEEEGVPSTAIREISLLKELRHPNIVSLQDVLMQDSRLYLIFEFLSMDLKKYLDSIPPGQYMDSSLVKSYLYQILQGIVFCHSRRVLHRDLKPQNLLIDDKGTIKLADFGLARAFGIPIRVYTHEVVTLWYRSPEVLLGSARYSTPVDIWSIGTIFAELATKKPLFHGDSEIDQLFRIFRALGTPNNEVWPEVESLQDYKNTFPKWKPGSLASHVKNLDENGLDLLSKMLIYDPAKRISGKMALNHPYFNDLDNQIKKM
Cyclin-dependent kinase 1/cyclin B1 (Homo sapiens), sequence (P14635 whole entry, looked up): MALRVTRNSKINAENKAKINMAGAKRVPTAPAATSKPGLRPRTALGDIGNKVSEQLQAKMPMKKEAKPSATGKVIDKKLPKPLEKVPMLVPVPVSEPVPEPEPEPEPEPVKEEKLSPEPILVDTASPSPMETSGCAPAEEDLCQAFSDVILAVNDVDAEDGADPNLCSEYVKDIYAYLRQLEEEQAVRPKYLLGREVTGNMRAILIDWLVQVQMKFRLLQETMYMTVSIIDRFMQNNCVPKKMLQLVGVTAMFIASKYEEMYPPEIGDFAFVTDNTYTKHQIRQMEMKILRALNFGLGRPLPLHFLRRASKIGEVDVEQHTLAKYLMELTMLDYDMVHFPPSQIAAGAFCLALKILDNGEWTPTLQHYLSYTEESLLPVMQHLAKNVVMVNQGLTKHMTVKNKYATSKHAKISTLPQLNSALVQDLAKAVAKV

[3] = Induction of apoptosis in gefitinib-insensitive human HCC827GR cells assessed as late apoptotic cells at 1 uM measured after 24 hrs by Annexin-V/propidium iodide staining-based flow cytometric analysis (reference value: 1.5%); assay type: functional
[4] = target: Cyclin-dependent kinase 5/CDK5 activator 1 (Homo sapiens) (UniProt Q00535+Q15078); assay: Inhibition of CDK5/p35 (unknown origin) at 10 uM using FAM-labelled peptide as substrate pre-incubated for 10 mins followed by substrate addition by mobility shift assay relative to control; assay type: protein-complex assay
[5] = test system: Epidermal growth factor receptor (Homo sapiens), P00533 [T790M]; assay: Inhibition of GST-tagged human EGFR T790M mutant expressed in baculovirus at 10 uM using FAM-labelled peptide as substrate pre-incubated for 10 mins followed by substrate addition by mobility shift assay relative to control
Epidermal growth factor receptor (Homo sapiens), P00533 [T790M], sequence (P00533 whole entry T790M): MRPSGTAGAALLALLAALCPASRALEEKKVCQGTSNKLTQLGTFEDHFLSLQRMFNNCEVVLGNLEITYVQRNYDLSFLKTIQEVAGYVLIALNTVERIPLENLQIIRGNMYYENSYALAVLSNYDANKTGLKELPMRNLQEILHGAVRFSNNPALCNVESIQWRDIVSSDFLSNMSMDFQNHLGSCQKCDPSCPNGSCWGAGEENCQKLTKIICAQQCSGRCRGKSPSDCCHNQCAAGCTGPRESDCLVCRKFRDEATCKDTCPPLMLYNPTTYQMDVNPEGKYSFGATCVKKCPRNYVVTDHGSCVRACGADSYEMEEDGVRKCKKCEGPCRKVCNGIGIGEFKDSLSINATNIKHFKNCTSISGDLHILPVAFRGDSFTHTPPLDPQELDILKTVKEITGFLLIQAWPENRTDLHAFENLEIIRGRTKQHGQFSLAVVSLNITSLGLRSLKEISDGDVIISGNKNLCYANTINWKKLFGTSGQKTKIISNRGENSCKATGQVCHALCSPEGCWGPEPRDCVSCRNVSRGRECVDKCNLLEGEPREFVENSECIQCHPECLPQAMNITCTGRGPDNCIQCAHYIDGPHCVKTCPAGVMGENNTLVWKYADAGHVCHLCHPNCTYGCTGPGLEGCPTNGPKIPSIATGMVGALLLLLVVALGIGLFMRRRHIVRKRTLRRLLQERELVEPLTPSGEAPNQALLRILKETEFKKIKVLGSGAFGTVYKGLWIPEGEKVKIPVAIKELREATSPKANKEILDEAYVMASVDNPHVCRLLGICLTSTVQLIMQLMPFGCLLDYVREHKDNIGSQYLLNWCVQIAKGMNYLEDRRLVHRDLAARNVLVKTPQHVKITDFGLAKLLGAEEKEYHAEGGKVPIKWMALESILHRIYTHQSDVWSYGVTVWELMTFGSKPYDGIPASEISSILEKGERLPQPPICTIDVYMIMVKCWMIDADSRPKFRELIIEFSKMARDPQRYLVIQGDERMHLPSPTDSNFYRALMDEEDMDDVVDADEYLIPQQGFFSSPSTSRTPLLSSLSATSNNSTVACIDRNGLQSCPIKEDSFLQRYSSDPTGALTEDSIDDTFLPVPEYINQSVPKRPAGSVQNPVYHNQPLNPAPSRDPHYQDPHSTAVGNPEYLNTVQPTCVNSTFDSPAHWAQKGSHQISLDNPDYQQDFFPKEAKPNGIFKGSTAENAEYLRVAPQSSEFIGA

[6] = species on record: Homo sapiens; assay: Inhibition of colony formation in gefitinib-insensitive human HCC827GR cells measured after 24 hrs by crystal violet staining based assay; assay type: functional
[7] = test system: NCI-H226; assay: Antiproliferative activity against human NCI-H226 cells assessed as inhibition of cell growth at 10 uM incubated for 48 hrs by MTT assay relative to control; assay type: functional; details: NCI-H226, 48 h
[8] = test system: PC-9; assay: Antiproliferative activity against human PC9 cells incubated for 48 hrs by MTT assay; assay type: functional, cell-based; details: PC-9, 48 h
[9] = Volume of distribution in Sprague-Dawley rat at 30 mg/kg, po measured upto 24 hrs by UPLC-MS/MS; assay type: ADME, organism-based; details: in vivo
[10] = target: Tyrosine-protein kinase JAK3 (Homo sapiens) (UniProt P52333); assay: Inhibition of N-terminal GST tagged human JAK3 catalytic domain (795 to 1124 AA) expressed in baculovirus at 10 uM using FAM-labelled peptide as substrate pre-incubated for 10 mins followed by substrate addition by mobility shift assay relative to control
Tyrosine-protein kinase JAK3 (Homo sapiens), sequence (P52333 whole entry, the tested form may be a part): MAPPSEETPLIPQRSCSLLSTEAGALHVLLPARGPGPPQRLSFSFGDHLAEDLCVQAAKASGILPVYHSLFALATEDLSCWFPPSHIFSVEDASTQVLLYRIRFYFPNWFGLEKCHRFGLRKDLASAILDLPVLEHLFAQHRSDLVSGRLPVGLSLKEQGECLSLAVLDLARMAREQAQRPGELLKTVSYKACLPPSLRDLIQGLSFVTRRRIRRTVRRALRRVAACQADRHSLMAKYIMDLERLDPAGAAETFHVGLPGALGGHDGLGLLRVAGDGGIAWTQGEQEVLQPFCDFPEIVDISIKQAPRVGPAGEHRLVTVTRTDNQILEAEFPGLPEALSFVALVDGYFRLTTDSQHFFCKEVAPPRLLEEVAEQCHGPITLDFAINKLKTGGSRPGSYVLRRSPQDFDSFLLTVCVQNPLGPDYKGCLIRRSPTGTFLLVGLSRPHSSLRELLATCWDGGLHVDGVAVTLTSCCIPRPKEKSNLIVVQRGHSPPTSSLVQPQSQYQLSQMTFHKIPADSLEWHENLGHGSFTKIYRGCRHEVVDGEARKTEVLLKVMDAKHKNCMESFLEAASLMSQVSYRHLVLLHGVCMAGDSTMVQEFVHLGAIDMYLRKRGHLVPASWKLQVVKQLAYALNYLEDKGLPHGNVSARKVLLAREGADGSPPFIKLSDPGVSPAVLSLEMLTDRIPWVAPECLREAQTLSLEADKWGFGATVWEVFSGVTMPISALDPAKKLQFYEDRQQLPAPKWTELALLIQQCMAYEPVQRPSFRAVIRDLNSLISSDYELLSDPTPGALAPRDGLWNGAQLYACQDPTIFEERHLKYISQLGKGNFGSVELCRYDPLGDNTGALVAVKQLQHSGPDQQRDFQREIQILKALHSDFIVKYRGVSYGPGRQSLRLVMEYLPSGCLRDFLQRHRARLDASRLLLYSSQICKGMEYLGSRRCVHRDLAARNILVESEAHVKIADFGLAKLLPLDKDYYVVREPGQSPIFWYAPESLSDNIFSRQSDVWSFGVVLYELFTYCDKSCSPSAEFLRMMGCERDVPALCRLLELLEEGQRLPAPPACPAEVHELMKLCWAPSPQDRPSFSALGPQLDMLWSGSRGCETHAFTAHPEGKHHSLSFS

[11] = target: Fibroblast growth factor receptor 2 (Homo sapiens) (UniProt P21802); assay: Inhibition of N-terminal GST tagged human FGFR2 cytoplasmic domain (399 to 821 AA) expressed in baculovirus at 10 uM using FAM-labelled peptide as substrate pre-incubated for 10 mins followed by substrate addition by mobility shift assay relative to control
Fibroblast growth factor receptor 2 (Homo sapiens), sequence (P21802 22-821 limits assumed): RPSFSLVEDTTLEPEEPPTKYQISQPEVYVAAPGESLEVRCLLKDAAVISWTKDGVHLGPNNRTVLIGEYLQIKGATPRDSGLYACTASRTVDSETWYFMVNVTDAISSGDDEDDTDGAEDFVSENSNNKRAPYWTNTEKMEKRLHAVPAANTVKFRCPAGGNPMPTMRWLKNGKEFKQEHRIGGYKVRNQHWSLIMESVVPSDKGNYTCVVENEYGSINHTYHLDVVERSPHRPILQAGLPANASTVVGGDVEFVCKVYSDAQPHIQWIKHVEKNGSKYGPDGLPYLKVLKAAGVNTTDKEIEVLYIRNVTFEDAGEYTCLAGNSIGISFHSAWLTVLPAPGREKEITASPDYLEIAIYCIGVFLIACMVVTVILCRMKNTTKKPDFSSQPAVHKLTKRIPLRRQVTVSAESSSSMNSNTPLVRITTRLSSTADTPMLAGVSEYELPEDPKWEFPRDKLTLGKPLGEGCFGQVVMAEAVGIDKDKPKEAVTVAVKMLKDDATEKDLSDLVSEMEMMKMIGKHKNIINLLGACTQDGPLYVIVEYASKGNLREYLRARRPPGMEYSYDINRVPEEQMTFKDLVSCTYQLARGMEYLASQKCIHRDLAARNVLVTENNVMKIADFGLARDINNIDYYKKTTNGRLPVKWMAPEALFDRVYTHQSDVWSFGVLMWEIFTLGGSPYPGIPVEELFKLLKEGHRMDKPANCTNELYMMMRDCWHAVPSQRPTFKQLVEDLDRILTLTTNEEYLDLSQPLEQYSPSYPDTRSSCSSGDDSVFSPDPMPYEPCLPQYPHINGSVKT

[12] = test system: NCI-H226; assay: Induction of apoptosis in human NCI-H226 cells assessed as late apoptotic cells at 5 uM measured after 24 hrs by Annexin-V/propidium iodide staining-based flow cytometric analysis (reference value: 2.8%); assay type: functional
[13] = target: Epidermal growth factor receptor (Homo sapiens, UniProt P00533); assay: Inhibition of EGF-induced EGFR phosphorylation in serum-starved human PC9 cells upto 10 uM incubated for 1 hr by Western blot analysis
Epidermal growth factor receptor, sequence (P00533 whole entry): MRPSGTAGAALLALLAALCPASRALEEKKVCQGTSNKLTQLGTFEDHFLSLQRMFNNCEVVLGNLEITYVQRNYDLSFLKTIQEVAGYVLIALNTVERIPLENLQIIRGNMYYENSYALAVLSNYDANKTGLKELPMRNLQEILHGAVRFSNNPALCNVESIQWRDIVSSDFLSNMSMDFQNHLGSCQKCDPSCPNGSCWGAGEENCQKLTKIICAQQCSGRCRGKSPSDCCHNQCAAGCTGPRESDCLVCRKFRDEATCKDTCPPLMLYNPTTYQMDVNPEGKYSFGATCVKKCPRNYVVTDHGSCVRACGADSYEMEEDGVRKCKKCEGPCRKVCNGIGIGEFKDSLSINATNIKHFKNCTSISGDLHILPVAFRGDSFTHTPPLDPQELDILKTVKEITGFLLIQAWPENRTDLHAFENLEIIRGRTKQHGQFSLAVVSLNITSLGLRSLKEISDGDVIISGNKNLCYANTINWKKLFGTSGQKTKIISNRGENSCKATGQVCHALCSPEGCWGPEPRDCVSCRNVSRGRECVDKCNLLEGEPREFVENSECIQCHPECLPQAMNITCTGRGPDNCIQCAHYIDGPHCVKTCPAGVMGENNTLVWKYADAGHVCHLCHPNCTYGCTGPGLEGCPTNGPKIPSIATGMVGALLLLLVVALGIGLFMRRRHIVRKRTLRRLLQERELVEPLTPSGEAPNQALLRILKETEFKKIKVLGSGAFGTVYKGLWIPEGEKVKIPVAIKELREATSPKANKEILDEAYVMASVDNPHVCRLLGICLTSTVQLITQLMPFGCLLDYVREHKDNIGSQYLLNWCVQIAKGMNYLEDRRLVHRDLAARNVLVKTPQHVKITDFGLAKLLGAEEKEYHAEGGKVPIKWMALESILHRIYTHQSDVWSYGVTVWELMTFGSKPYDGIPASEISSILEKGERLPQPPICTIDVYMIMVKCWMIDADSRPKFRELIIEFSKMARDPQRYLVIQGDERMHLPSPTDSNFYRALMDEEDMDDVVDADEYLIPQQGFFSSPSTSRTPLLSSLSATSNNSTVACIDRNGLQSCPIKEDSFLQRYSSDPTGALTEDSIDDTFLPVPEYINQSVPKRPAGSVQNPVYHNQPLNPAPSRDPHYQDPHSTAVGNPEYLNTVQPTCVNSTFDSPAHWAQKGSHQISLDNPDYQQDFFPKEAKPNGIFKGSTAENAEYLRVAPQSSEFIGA

[14] = test system: NCI-H226; assay: Induction of cell cycle arrest in human NCI-H226 cells assessed as accumulation of cells at G1 measured after 24 hrs by flow cytometry; assay type: functional, cell-based

What does the source list for `COc1ccc(OC)c(Nc2cc(NC(=O)Nc3c(Cl)cccc3Cl)ncn2)c1`?
Activity [1]: Active; inhibition [2]: -9.78%; Activity [3]: 16%; inhibition [4]: -2.81%; inhibition [5]: 86.8%; inhibition [6]: Dose-dependent effect; inhibition at 10 µM [7]: 81.7%; pIC50 [8]: 5.87; Vd [9]: 0.03 L/kg; inhibition [10]: 3.36%; inhibition [11]: 82.5%; Activity [12]: 8.9%; inhibition [13]: Active; Activity [14]: Active
